According to patent publication US20240335548A1, “MACROMOLECULES” (Starpharma Pty Ltd, priority 2011, published 2024):
pIC50: −log10 of the molar value. Read-outs that look alike come from different tables or passages of the source.

Legend:
[1] = Water solubility study on drug loaded dendrimers; type: physicochemical
Procedure: Protocol: To 30 mg of dendrimer (freeze-dried from water) was added 100 μL of deionised water. After mixing for 10 minutes, additional aliquots of water (10-30 μL per addition) were added with vortexing and incubation for 10 mins until full dissolution was obtained. This amount is represented in Table 1 as the water solubility of the dendrimer. The equivalent drug solubility is determined by multiplying the % drug loading/100 and is represented in Table 1 (column 3) as Equivalent drug solubility on dendrimer. Finally, the fold increase is obtained by dividing the Equivalent drug solubility on dendrimer by the solubility of the drug and is represented in Table 1 (column 4).

[2] = Plasma stability study: docetaxel release in mouse plasma; type: in vitro ADME; conditions: 37° C.
Procedure: Protocol: To 0.5 mL of mouse plasma was added 0.1 mL of dendrimer solution (2 mg/mL, drug equivalent in saline). The mixtures were vortexed (30 s) then incubated at 37° C. At various timepoints (0.5, 2.5, 4.5, 22 hours) 0.1 mL aliquots were removed and added to 0.2 mL ACN. The resulting mixtures were vortexed (30 s), centrifuged (10 min, 4° C.) filtered and analysed by HPLC (C8, 3.9×150 mm, 5 μm, wavelength=243 nm, 10 μL injections, gradient: 40-80% ACN/H2O (1-7 min), 80% ACN (7-9 min), 80-40% ACN (9-11 min), 40% ACN (11-15 min), 10 mM ammonium formate, pH 7.40) which when compared against a standard (2 mg//mL) provided the concentration of free docetaxel in the sample.

ES2 (Ovarian) = experiment: Cell growth inhibition SRB assay; type: cell-based
Procedure: (§1) All solutions were prepared in saline (except docetaxel which was made in ethanol). All solutions were stored at −20° C. All values were based on the equivalent drug loading.

H460 (Lung) = experiment: Cell growth inhibition SRB assay; type: cell-based
Procedure: as §1

PC-3 (Prostate) = experiment: Cell growth inhibition SRB assay; type: cell-based
Procedure: as §1

A2780 = experiment: IC50 using the MTT assay; type: cell-based; conditions: 72 hours
Procedure: (§2) The IC50 using the MTT assay [Wilson, Anne P. (2000). “Chapter 7: Cytotoxicity and viability”. In Masters, John R. W. Animal Cell Culture: A Practical Approach. Vol. 1 (3rd ed.). Oxford: Oxford University Press] was determined against various cancer cell lines after 72 hours.

A549 = experiment: IC50 using the MTT assay; type: cell-based; conditions: 72 hours
Procedure: as §2

DU-145 = experiment: IC50 using the MTT assay; type: cell-based; conditions: 72 hours
Procedure: as §2

H460 = experiment: IC50 using the MTT assay; type: cell-based; conditions: 72 hours
Procedure: as §2

HCT-116 = experiment: IC50 using the MTT assay; type: cell-based; conditions: 72 hours
Procedure: as §2

HT-29 = experiment: IC50 using the MTT assay; type: cell-based; conditions: 72 hours
Procedure: as §2

MCF-7 = experiment: IC50 using the MTT assay; type: cell-based; conditions: 72 hours
Procedure: as §2

PC-3 = experiment: IC50 using the MTT assay; type: cell-based; conditions: 72 hours
Procedure: as §2

A2058 (Melanoma) = experiment: Cell growth inhibition SRB assay; type: cell-based
Procedure: as §1

A549 (Lung) = experiment: Cell growth inhibition SRB assay; type: cell-based
Procedure: as §1

DU145 (Prostate) = experiment: Cell growth inhibition SRB assay; type: cell-based
Procedure: as §1

HCT116 (Colon) = experiment: Cell growth inhibition SRB assay; type: cell-based
Procedure: as §1

HT29 (Colon) = experiment: Cell growth inhibition SRB assay; type: cell-based
Procedure: as §1

MCAS (Ovarian) = experiment: Cell growth inhibition SRB assay; type: cell-based
Procedure: as §1

MDA-MB-231 (Breast) = experiment: Cell growth inhibition SRB assay; type: cell-based
Procedure: as §1

[3] = day 16, one day after final dose
Procedure: The 20 mice were randomised into 5 groups of four mice (mean tumour volume ˜90 mm^3). Animals were eye bled in the morning for baseline blood cell counts and then drug dosing commenced later that day (day 1). […] A second eye bleed was performed on day 11 (Table 7 A-C). Mice were killed one day following the final drug dose (day 16).

[4] = equivalent drug solubility divided by solubility of the drug
[5] = water solubility x % drug loading/100
[6] = ES2, 72 hours, equivalent drug loading, average of duplicate
[7] = H460, 72 hours, equivalent drug loading, average of duplicate
[8] = PC-3, 72 hours, equivalent drug loading, average of duplicate
[9] = deionised water, until full dissolution
[10] = A2058, 72 hours, equivalent drug loading, average of duplicate
[11] = A549, 72 hours, equivalent drug loading, average of duplicate
[12] = DU145, 72 hours, equivalent drug loading, average of duplicate
[13] = HCT116, 72 hours, equivalent drug loading, average of duplicate
[14] = HT29, 72 hours, equivalent drug loading, average of duplicate
[15] = MCAS, 72 hours, equivalent drug loading, average of duplicate
[16] = MDA-MB-231, 72 hours, equivalent drug loading, average of duplicate

## BHALys[Lys]32[α-PSSP-DTX]32[ε-PEG1100]32 [2 (b)]
[1]
  Water solubility of dendrimer: 57 mg/mL
[1]; [4]
  Fold increase in drug solubility: 2800
[1]; [5]
  Equivalent drug solubility on dendrimer: 14 mg/mL
[2]; 0.5 hours
  Docetaxel release in plasma: 5 percentage of total docetaxel
[2]; 2.5 hours
  Docetaxel release in plasma: 8 percentage of total docetaxel
[2]; 22 hours
  Docetaxel release in plasma: 15.5 percentage of total docetaxel
ES2 (Ovarian); [6]
  GI50: 116 nM
H460 (Lung); [7]
  GI50: 73 nM
PC-3 (Prostate); [8]
  GI50: 110 nM

## BHALys[Lys]32[α-GILGVP-Glu-DTX]32[ε-t-PEG2300]32 [Example 17]
A2780
  pIC50: 6.54
A549
  pIC50: 6.80
DU-145
  pIC50: 6.54
H460
  pIC50: 6.22
HCT-116
  pIC50: 6.67
HT-29
  pIC50: 7.07
MCF-7
  pIC50: 7.03
PC-3
  pIC50: 6.45

## BHALys[Lys]32[α-Glu-PTX]32[ε-PEG2300]32 [Example 12]
[1]
  Water solubility of dendrimer: 15 mg/mL
[1]; [4]
  Fold increase in drug solubility: 10000
[1]; [5]
  Equivalent drug solubility on dendrimer: 3 mg/mL

## BHALys[Lys]32[α-DGA-Testosterone]32[ε-PEG1100]32 [20 (b)]
[1]
  Equivalent drug solubility on dendrimer: 11.5 mg/mL
  Fold increase in drug solubility: 482
  Water solubility of dendrimer: >75 mg/mL

## BHALys[Lys]32[α-PEG2-DTX]32[ε-PEG1100]32 [10 (b)]
ES2 (Ovarian); [6]
  GI50: 10.5 nM
H460 (Lung); [7]
  GI50: 6.5 nM
PC-3 (Prostate); [8]
  GI50: 9.5 nM

## BHALys[Lys]32[α-Glu-DTX]32[ε-PEG1100]32 [5 (b)]
[1]; [9]
  Water solubility of dendrimer: 214 mg/mL
[1]; [4]
  Fold increase in drug solubility: 4000
[1]; [5]
  Equivalent drug solubility on dendrimer: 75 mg/mL
[2]; 0.5 hours
  Docetaxel release in plasma: 0 percentage of total docetaxel
[2]; 2.5 hours
  Docetaxel release in plasma: 0 percentage of total docetaxel
[2]; 22 hours
  Docetaxel release in plasma: 4 percentage of total docetaxel
A2058 (Melanoma)
  GI50: 71.5 nM
A549 (Lung)
  GI50: 56.5 nM
DU145 (Prostate)
  GI50: 148 nM
ES2 (Ovarian)
  GI50: 116 nM
H460 (Lung)
  GI50: 106 nM
HCT116 (Colon)
  GI50: 85.5 nM
HT29 (Colon)
  GI50: 97.5 nM
MCAS (Ovarian)
  GI50: 252 nM
MDA-MB-231 (Breast)
  GI50: 50.5 nM
PC-3 (Prostate)
  GI50: 160 nM

## BHALys[Lys]32[α-Glu-GEM]32[ε-PEG1100]32 [13 (b)]
A2058 (Melanoma); [10]
  GI50: 100 nM
A549 (Lung); [11]
  GI50: 73 nM
DU145 (Prostate); [12]
  GI50: 99 nM
ES2 (Ovarian); [6]
  GI50: 48 nM
H460 (Lung); [7]
  GI50: 127 nM
HCT116 (Colon); [13]
  GI50: 30.5 nM
HT29 (Colon); [14]
  GI50: 117 nM
MCAS (Ovarian); [15]
  GI50: 117 nM
MDA-MB-231 (Breast); [16]
  GI50: 50.5 nM
PC-3 (Prostate); [8]
  GI50: 288 nM

## BHALys[Lys]32[α-GGG-Glu-DTX]32[ε-PEG1100]32 [14 (c)]
A2780
  pIC50: 8.34
A549
  pIC50: 8.82
DU-145
  pIC50: 8.14
H460
  pIC50: 8.37
HCT-116
  pIC50: 8.59
HT-29
  pIC50: 9.30
MCF-7
  pIC50: 9.30
PC-3
  pIC50: 8.42

## BHALys[Lys]32[α-PDT-DTX]32[ε-PEG1100]32 [9 (b)]
ES2 (Ovarian); [6]
  GI50: 888 nM
H460 (Lung); [7]
  GI50: 365 nM
PC-3 (Prostate); [8]
  GI50: 618 nM

## BHALys[Lys]32[α-MIDA-DTX]32[ε-PEG1100]32 [6 (b)]
[1]; [9]
  Water solubility of dendrimer: 100 mg/mL
[1]; [4]
  Fold increase in drug solubility: 6400
[1]; [5]
  Equivalent drug solubility on dendrimer: 32 mg/mL
[2]; 0.5 hours
  Docetaxel release in plasma: 7.5 percentage of total docetaxel
[2]; 2.5 hours
  Docetaxel release in plasma: 9 percentage of total docetaxel
[2]; 22 hours
  Docetaxel release in plasma: 23.5 percentage of total docetaxel
ES2 (Ovarian)
  GI50: 12.5 nM
H460 (Lung)
  GI50: 11 nM
PC-3 (Prostate)
  GI50: 10.5 nM

## BHALys[Lys]32[α-4-HSBA-4Aba-DTX]32[ε-PEG1100]32 [1 (b)]
A2058 (Melanoma); [10]
  GI50: 9.5 nM
A549 (Lung); [11]
  GI50: 13 nM
DU145 (Prostate); [12]
  GI50: 11.5 nM
ES2 (Ovarian); [6]
  GI50: 16.5 nM
H460 (Lung); [7]
  GI50: 13 nM
HCT116 (Colon); [13]
  GI50: 8.5 nM
HT29 (Colon); [14]
  GI50: 12.5 nM
MCAS (Ovarian); [15]
  GI50: 29 nM
MDA-MB-231 (Breast); [16]
  GI50: 11.5 nM
PC-3 (Prostate); [8]
  GI50: 17 nM

## BHALys[Lys]32[α-Glu-Testosterone]32[ε-PEG1100]32 [22 (b)]
[1]
  Equivalent drug solubility on dendrimer: 14.7 mg/mL
  Fold increase in drug solubility: 610
  Water solubility of dendrimer: >89 mg/mL

## BHALys[Lys]32[α-GFLG-Glu-DTX]32[ε-PEG1100]32 [15 (c)]
A2780
  pIC50: 7.87
A549
  pIC50: 8.09
DU-145
  pIC50: 7.53
H460
  pIC50: 7.50
HCT-116
  pIC50: 8.14
HT-29
  pIC50: 8.24
MCF-7
  pIC50: 8.08
PC-3
  pIC50: 7.93

## BHALys[Lys]32[α-PEG1100]32[ε-TDA-DTX]32 [Example 18]
A2780
  pIC50: 8.24
A549
  pIC50: 7.69
DU-145
  pIC50: 7.94
H460
  pIC50: 8.12
HCT-116
  pIC50: 8.54
HT-29
  pIC50: 8.74
MCF-7
  pIC50: 8.48
PC-3
  pIC50: 8.23

## BHALys[Lys]32[α-Glu-Testosterone]32[ε-PEG570]32 [Example 23]
[1]
  Equivalent drug solubility on dendrimer: 26.6 mg/mL
  Fold increase in drug solubility: 1109
  Water solubility of dendrimer: >125 mg/mL

## BHALys[Lys]32[α-4-HSBA-Cp-DTX]32[ε-PEG1100]32 [Example 4 (c)]
[1]; [9]
  Water solubility of dendrimer: 109 mg/mL
[1]; [5]
  Equivalent drug solubility on dendrimer: 22 mg/mL
[2]; 0.5 hours
  Docetaxel release in plasma: 1.5 percentage of total docetaxel
[2]; 2.5 hours
  Docetaxel release in plasma: 10 percentage of total docetaxel
[2]; 22 hours
  Docetaxel release in plasma: 17.5 percentage of total docetaxel
A2058 (Melanoma); [10]
  GI50: 8 nM
A549 (Lung); [11]
  GI50: 8.5 nM
DU145 (Prostate); [12]
  GI50: 12 nM
ES2 (Ovarian); [6]
  GI50: 8.6 nM
H460 (Lung); [7]
  GI50: 11 nM
HCT116 (Colon); [13]
  GI50: 9 nM
HT29 (Colon); [14]
  GI50: 9.5 nM
MCAS (Ovarian); [15]
  GI50: 20 nM
MDA-MB-231 (Breast); [16]
  GI50: 6.5 nM
PC-3 (Prostate); [8]
  GI50: 21.5 nM
[3]
  Mean Tumour Weights (g) (sd): 0.079 g

## BHALys[Lys]32[α-DGA-Testosterone]32[ε-PEG570]32 [Example 21]
[1]
  Equivalent drug solubility on dendrimer: 14.8 mg/mL
  Fold increase in drug solubility: 618
  Water solubility of dendrimer: >81 mg/mL

## BHALys[Lys]32[α-o-PDA-DTX]32[ε-PEG1100]32 [7 (b)]
[1]; [9]
  Water solubility of dendrimer: 91 mg/mL
[1]; [4]
  Fold increase in drug solubility: 5000
[1]; [5]
  Equivalent drug solubility on dendrimer: 25 mg/mL
[2]; 0.5 hours
  Docetaxel release in plasma: 20.5 percentage of total docetaxel
[2]; 2.5 hours
  Docetaxel release in plasma: 32 percentage of total docetaxel
[2]; 22 hours
  Docetaxel release in plasma: 71.5 percentage of total docetaxel
ES2 (Ovarian)
  GI50: 8 nM
H460 (Lung)
  GI50: 4.5 nM
PC-3 (Prostate)
  GI50: 6.5 nM
